Reference: ChEMBL document CHEMBL1141054, “Analogs of a potent maxi-K potassium channel opener with an improved inhibitory profile toward cytochrome P450 isozymes” (Bioorg Med Chem Lett, 2005)

Tests used:
[1] = Percent increase of potassium current mediated by large conductance calcium-activated channel expressed in Xenopus laevis oocytes at 20 uM; assay type: functional, Homo sapiens, Oocyte
Cytochrome P450 1A2 = biological target: T1, Cytochrome P450 1A2 (Homo sapiens, UniProt P05177); assay: Inhibition against Cytochrome P450 1A2 prepared from baculovirus-infected insect cells using 3-cyano-7-ethoxycoumarin; assay type: ADME
T1 sequence (P05177 whole entry): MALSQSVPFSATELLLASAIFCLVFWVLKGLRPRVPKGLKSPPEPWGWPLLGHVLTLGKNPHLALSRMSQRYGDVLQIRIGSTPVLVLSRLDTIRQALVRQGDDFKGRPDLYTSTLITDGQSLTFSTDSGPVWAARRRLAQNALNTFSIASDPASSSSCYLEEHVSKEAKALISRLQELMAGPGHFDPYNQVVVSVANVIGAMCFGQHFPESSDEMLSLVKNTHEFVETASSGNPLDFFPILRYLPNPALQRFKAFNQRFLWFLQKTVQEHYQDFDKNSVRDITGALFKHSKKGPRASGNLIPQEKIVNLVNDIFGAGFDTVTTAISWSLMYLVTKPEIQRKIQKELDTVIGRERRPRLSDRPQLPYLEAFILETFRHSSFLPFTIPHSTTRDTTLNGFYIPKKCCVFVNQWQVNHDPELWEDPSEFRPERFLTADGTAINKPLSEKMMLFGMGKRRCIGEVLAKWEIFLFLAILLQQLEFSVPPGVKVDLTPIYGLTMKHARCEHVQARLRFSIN

Cytochrome P450 2D6 [2] = biological target: T2, Cytochrome P450 2D6 (Homo sapiens, UniProt P10635); assay: Inhibition against Cytochrome P450 2D6 prepared from baculovirus-infected insect cells using 3-[2-(N,N-diethyl-N-methylamino)ethyl]-7- methoxy-4-methylcoumarin; assay type: ADME
T2 sequence (P10635 whole entry): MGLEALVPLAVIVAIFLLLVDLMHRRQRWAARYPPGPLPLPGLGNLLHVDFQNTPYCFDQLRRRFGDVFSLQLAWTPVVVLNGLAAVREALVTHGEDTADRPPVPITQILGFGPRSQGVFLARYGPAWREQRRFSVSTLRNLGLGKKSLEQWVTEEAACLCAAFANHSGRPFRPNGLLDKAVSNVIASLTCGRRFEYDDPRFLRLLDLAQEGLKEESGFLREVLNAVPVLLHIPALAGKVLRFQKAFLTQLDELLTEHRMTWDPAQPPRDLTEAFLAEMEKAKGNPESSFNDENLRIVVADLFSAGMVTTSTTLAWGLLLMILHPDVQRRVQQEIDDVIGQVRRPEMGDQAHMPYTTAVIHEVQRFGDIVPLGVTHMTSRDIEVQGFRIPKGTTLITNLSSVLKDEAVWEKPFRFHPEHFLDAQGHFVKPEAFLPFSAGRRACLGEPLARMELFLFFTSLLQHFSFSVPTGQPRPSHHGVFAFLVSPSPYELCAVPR

Cytochrome P450 2C19 = Cytochrome P450 2C19 (Homo sapiens, UniProt P33261); assay: Inhibition against Cytochrome P450 2C19 prepared from baculovirus-infected insect cells using 3-cyano-7-ethoxycoumarin; assay type: ADME
Sequence of Cytochrome P450 2C19 (P33261 whole entry): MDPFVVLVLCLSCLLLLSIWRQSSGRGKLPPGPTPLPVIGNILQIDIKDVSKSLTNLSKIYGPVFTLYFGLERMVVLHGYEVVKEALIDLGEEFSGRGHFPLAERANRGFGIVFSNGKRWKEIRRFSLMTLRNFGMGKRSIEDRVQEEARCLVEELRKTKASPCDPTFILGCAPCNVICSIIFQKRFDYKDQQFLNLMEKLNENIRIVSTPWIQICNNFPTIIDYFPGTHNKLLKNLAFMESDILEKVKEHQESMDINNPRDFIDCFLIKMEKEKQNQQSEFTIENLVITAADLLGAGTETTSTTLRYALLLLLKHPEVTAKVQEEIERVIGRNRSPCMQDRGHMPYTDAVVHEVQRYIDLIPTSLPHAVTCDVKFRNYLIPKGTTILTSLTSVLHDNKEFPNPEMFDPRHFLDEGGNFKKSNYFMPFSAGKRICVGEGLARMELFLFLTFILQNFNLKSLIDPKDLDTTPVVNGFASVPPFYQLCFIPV

Cytochrome P450 3A4 [3] = biological target: T3, Cytochrome P450 3A4 (Homo sapiens, UniProt P08684); assay: Inhibition against Cytochrome P450 3A4 prepared from baculovirus-infected insect cells using 7-benzyloxy- 4-trifluoromethylcoumarin; assay type: ADME
T3 sequence (P08684 whole entry): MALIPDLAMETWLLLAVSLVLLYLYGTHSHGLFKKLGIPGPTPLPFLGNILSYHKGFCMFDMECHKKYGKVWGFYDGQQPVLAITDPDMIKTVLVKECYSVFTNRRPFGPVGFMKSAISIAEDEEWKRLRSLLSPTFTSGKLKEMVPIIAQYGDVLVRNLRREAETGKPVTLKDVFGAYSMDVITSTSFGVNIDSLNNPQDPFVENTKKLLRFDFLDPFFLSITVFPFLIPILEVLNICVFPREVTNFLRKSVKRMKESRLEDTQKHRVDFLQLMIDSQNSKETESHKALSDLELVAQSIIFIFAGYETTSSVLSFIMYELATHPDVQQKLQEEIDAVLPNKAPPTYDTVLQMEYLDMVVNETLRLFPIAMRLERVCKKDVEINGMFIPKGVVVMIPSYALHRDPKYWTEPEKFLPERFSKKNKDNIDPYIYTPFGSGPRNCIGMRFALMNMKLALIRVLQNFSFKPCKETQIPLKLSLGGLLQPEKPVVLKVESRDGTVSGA

Cytochrome P450 2C9 [4] = biological target: T4, Cytochrome P450 2C9 (Homo sapiens, UniProt P11712); assay: Inhibition against Cytochrome P450 2C9 prepared from baculovirus-infected insect cells using 7-methoxy-4-trifluoromethylcoumarin; assay type: ADME
T4 sequence (P11712 whole entry): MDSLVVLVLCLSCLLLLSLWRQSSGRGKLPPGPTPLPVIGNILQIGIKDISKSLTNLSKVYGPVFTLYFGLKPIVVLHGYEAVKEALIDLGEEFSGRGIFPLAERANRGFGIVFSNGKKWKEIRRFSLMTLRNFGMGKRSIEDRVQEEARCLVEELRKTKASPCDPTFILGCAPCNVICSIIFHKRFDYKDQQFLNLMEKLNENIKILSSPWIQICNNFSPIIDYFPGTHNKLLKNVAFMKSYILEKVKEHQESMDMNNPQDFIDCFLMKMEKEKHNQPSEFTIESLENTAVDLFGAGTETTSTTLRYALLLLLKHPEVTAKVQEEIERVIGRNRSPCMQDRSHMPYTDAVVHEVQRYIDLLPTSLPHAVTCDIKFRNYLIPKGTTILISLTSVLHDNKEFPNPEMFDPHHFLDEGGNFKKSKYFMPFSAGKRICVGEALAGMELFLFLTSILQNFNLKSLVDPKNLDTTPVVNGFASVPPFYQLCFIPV

Cytochrome P450 3A4 [5] = biological target: T3, Cytochrome P450 3A4; assay: Inhibition against Cytochrome P450 3A4 prepared from baculovirus-infected insect cells using resorufin benzyl ether; assay type: ADME
Cytochrome P450 2C9 [6] = biological target: T4, Cytochrome P450 2C9; assay: Inhibitory activity against Cytochrome P450 2C9; assay type: ADME
Cytochrome P450 2C9 [7] = biological target: T4, Cytochrome P450 2C9; assay: Inhibition against Cytochrome P450 2C9; assay type: ADME
Cytochrome P450 3A4 [8] = biological target: T3, Cytochrome P450 3A4; assay: Inhibition against Cytochrome P450 3A4 prepared from baculovirus-infected insect cells using resorufin benzylether; assay type: ADME
Cytochrome P450 3A4 [9] = biological target: T3, Cytochrome P450 3A4; assay: Inhibition against Cytochrome P450 3A4 prepared from baculovirus-infected insect cells using 7-benzyloxy-4-trifluoromethylcoumarin; assay type: ADME
Cytochrome P450 2D6 [10] = biological target: T2, Cytochrome P450 2D6; assay: Inhibition against Cytochrome P450 2D6 prepared from baculovirus-infected insect cells using 3-[2-(N,N-diethyl-N-methylamino)ethyl]-7-methoxy-4-methylcoumarin; assay type: ADME

N=C(N)Cn1c(=O)c(CCO)c(-c2cc(Cl)ccc2O)c2cc(C(F)(F)F)ccc21 gave an Increase [1] of 105.8%.

O=c1c(CCO)c(-c2cc(Cl)ccc2O)c2cc(C(F)(F)F)ccc2n1Cc1nn[nH]n1 gave an Increase [1] of 205.8%, an IC50 (Cytochrome P450 1A2) of over 100 µM and an IC50 (Cytochrome P450 2D6 [2]) of over 100 µM. The IC50 (Cytochrome P450 2C19) was 12 µM, the IC50 (Cytochrome P450 3A4 [3]) was 30 µM and the IC50 (Cytochrome P450 2C9 [4]) was 19 µM. The IC50 (Cytochrome P450 3A4 [5]) was 13 µM.

With CCN(CC)C[C@@H](O)CSc1c(-c2cc(Cl)ccc2O)c2cc(C(F)(F)F)ccc2[nH]c1=O the IC50 (Cytochrome P450 2C9 [6]) was 50.7 µM.

For O=c1[nH]c2ccc(C(F)(F)F)cc2c(-c2cc(Cl)ccc2O)c1CCO [BMS-223131], the Increase [1] was 252.6%, the IC50 (Cytochrome P450 1A2) was 30 µM and the IC50 (Cytochrome P450 2C9 [7]) was 1.7 µM. For the same compound, the IC50 (Cytochrome P450 3A4 [8]) was over 100 µM, the IC50 (Cytochrome P450 2C19) was 5.2 µM and the IC50 (Cytochrome P450 2C9 [4]) was 1.7 µM. The IC50 (Cytochrome P450 3A4 [9]) was 8.1 µM and the IC50 (Cytochrome P450 2D6 [10]) was 35 µM.

COc1ccc(Cl)cc1-c1c(CCO)c(O)nc2ccc(C(F)(F)F)cc12 gave an Increase [1] of 211.2% and an IC50 (Cytochrome P450 2C9 [6]) of 5.47 µM.

Work on Cn1c(=O)c(CCO)c(-c2cc(Cl)ccc2O)c2cc(C(F)(F)F)ccc21 yielded an Increase [1] of 296.1% and an IC50 (Cytochrome P450 2C9 [6]) of 1.1 µM.

CCN(CC)C[C@H](O)CSc1c(-c2cc(Cl)ccc2O)c2cc(C(F)(F)F)ccc2[nH]c1=O showed an IC50 (Cytochrome P450 2C9 [6]) of 37.7 µM.

NC(=O)COc1ccc(Cl)cc1-c1c(CCO)c(O)nc2ccc(C(F)(F)F)cc12 showed an Increase [1] of 124%.

Work on N#CCOc1ccc(Cl)cc1-c1c(CCO)c(O)nc2ccc(C(F)(F)F)cc12 yielded an Increase [1] of 148.9%.

With CC(=O)CC1Oc2ccc(Cl)cc2-c2c1c(=O)[nH]c1ccc(C(F)(F)F)cc21 (stereo not drawn) the IC50 (Cytochrome P450 2C9 [6]) was 19.5 µM.

Compound NC(=O)Cn1c(=O)c(CCO)c(-c2cc(Cl)ccc2O)c2cc(C(F)(F)F)ccc21 has an Increase [1] of 262.5%, an IC50 (Cytochrome P450 1A2) of over 100 µM and an IC50 (Cytochrome P450 2D6 [2]) of over 100 µM. The IC50 (Cytochrome P450 2C19) was 8.2 µM, the IC50 (Cytochrome P450 3A4 [3]) was 26 µM and the IC50 (Cytochrome P450 2C9 [4]) was 16 µM. The IC50 (Cytochrome P450 3A4 [5]) was 50 µM.

For N#CCn1c(=O)c(CCO)c(-c2cc(Cl)ccc2O)c2cc(C(F)(F)F)ccc21, the Increase [1] was 236.6%, the IC50 (Cytochrome P450 1A2) was over 40 µM and the IC50 (Cytochrome P450 2D6 [2]) was 23 µM. The IC50 (Cytochrome P450 2C19) was 24 µM, the IC50 (Cytochrome P450 3A4 [3]) was 13 µM and the IC50 (Cytochrome P450 2C9 [4]) was 3.9 µM. The IC50 (Cytochrome P450 3A4 [5]) was 18 µM.

In the case of O=c1[nH]c2ccccc2c(Cc2ccccc2)c1-[n+]1ccccc1, the IC50 (Cytochrome P450 2C9 [6]) is reported as over 100 µM.

N=C(N)COc1ccc(Cl)cc1-c1c(CCO)c(O)nc2ccc(C(F)(F)F)cc12 gave an Increase [1] of 118.3%.

Work on OCCc1c(O)nc2ccc(C(F)(F)F)cc2c1-c1cc(Cl)ccc1OCc1nn[nH]n1 yielded an Increase [1] of 111%.

With O=C1Cc2c(c3cc(C(F)(F)F)ccc3[nH]c2=O)-c2cc(Cl)ccc2O1 the IC50 (Cytochrome P450 2C9 [6]) was 12.4 µM.
